Source: patent US9730938B2, “Bruton's tyrosine kinase inhibitor combinations and uses thereof” (Pharmacyclics LLC, priority 2014, dated 2017)

Legend:
[1] = test system: TMD8 cells expressing PIM1-WT; assay: Cell growth of modified TMD8 cells treated with ibrutinib; conditions: Homo sapiens
HBL-1 = assay: Combined drug treatment cell viability, CellTiter-Glo assay (Example 2); type: cell-based; conditions: JAK3 10 μM / MCL-1 3 μM / medium alone, 3 days
TMD8 = assay: Combined drug treatment cell viability, CellTiter-Glo assay (Example 1); type: cell-based; conditions: IDH1i 10 uM / MALT1i 100 nM / medium alone, 3 days
Experimental: (§1) DLBCL cells at either 1×10^4 cells or 2×10^4 cells were plated onto each well of a 96-W plate (Table 1).
(§2) The stock solutions for the IDH1 inhibitor AGI5198 and the MALT1 inhibitor MI-2 were each prepared at 50 mM concentration.
(§3) The 96-W plate was then incubated for 3 days. Cell viability was examined using a CellTiter-Glo assay.
(§4) A 40 μL of CellTiter-Glo reagent was added directly into each well of the 96-W plate. The plate was then shaken on a Shaker (Labsystem Wellmix) at speed 5 for 10-20 min at room temperature. Next, 100 μL of the mixed medium was transferred to a white, non-transparent, flat bottom 96-W plate for assaying. A Flexstation 3 luminometer was used for detecting and measuring the luminescent signals. Measurements were taken at room temperature.
(§5) In general, the combination is described as synergistic (CI<1), additive (CI=1), or antagonistic (CI>1). Synergism is further separated into very strong synergism (<0.1), strong synergism (0.1-0.3), synergism (0.3-0.7), moderate synergism (0.7-0.85), and slight synergism (0.85-0.9).

U2932 = assay: as above; type: cell-based; conditions: IDH1i 10 uM / MALT1i 200 nM / medium alone, 3 days
Experimental: as §1, §2, §3, §4, §5

OCI-LY-10 = assay: as above; type: cell-based; conditions: IDH1i 10 uM / MALT1i 5 uM / medium alone, 3 days
Experimental: as §1, §2, §3, §4, §5

SU-DHL-2 = assay: as above; type: cell-based; conditions: IDH1i 10 uM / MALT1i 200 nM / medium alone, 3 days
Experimental: as §1, §2, §3, §4, §5

OCI-LY-3 = assay: as above; type: cell-based; conditions: IDH1i 10 uM / MALT1i 5 uM / medium alone, 3 days
Experimental: as §1, §2, §3, §4, §5

## C=CC(=O)N1CCC[C@@H](n2nc(-c3ccc(Oc4ccccc4)cc3)c3c(N)ncnc32)C1 [ibrutinib, 1-((R)-3-(4-amino-3-(4-phenoxyphenyl)-1H-pyrazolo[3,4-d]pyrimidin-1-yl)piperidin-1-yl)prop-2-en-1-one]
[1]
  EC50: 76 nM
HBL-1; ibrutinib 0.0512 nM
  luminescence (CellTiter-Glo): 46288.31
HBL-1; ibrutinib 0.256 nM
  luminescence (CellTiter-Glo): 42826.48
HBL-1; ibrutinib 1.28 nM
  luminescence (CellTiter-Glo): 43461.99
HBL-1; ibrutinib 6.4 nM
  luminescence (CellTiter-Glo): 38857.83
HBL-1; ibrutinib 32 nM
  luminescence (CellTiter-Glo): 35516.66
HBL-1; ibrutinib 160 nM
  luminescence (CellTiter-Glo): 35090.31
HBL-1; ibrutinib 800 nM
  luminescence (CellTiter-Glo): 35103.71
HBL-1; ibrutinib 20000 nM
  luminescence (CellTiter-Glo): 16831.87
HBL-1; ibrutinib 40000 nM
  luminescence (CellTiter-Glo): 36806.47
TMD8; ibrutinib 0.0256 nM
  luminescence (CellTiter-Glo): 32496.06
TMD8; ibrutinib 0.128 nM
  luminescence (CellTiter-Glo): 32828.16
TMD8; ibrutinib 0.64 nM
  luminescence (CellTiter-Glo): 29180.29
TMD8; ibrutinib 3.2 nM
  luminescence (CellTiter-Glo): 31383.77
TMD8; ibrutinib 16 nM
  luminescence (CellTiter-Glo): 27190.31
TMD8; ibrutinib 80 nM
  luminescence (CellTiter-Glo): 28263.05
TMD8; ibrutinib 400 nM
  luminescence (CellTiter-Glo): 25674.76
TMD8; ibrutinib 2000 nM
  luminescence (CellTiter-Glo): 23421.20
TMD8; ibrutinib 10000 nM
  luminescence (CellTiter-Glo): 10819.72
U2932; ibrutinib 0.0256 nM
  luminescence (CellTiter-Glo): 63123.80
U2932; ibrutinib 0.128 nM
  luminescence (CellTiter-Glo): 57150.28
U2932; ibrutinib 0.64 nM
  luminescence (CellTiter-Glo): 53722.16
U2932; ibrutinib 3.2 nM
  luminescence (CellTiter-Glo): 53031.79
U2932; ibrutinib 16 nM
  luminescence (CellTiter-Glo): 51023.93
U2932; ibrutinib 80 nM
  luminescence (CellTiter-Glo): 49777.58
U2932; ibrutinib 400 nM
  luminescence (CellTiter-Glo): 46009.54
U2932; ibrutinib 2000 nM
  luminescence (CellTiter-Glo): 46858.01
U2932; ibrutinib 10000 nM
  luminescence (CellTiter-Glo): 37935.94
OCI-LY-10; ibrutinib 0.0256 nM
  luminescence (CellTiter-Glo): 61548.88
OCI-LY-10; ibrutinib 0.128 nM
  luminescence (CellTiter-Glo): 68196.56
OCI-LY-10; ibrutinib 0.64 nM
  luminescence (CellTiter-Glo): 63983.91
OCI-LY-10; ibrutinib 3.2 nM
  luminescence (CellTiter-Glo): 51190.81
OCI-LY-10; ibrutinib 16 nM
  luminescence (CellTiter-Glo): 27324.38
OCI-LY-10; ibrutinib 80 nM
  luminescence (CellTiter-Glo): 23511.43
OCI-LY-10; ibrutinib 400 nM
  luminescence (CellTiter-Glo): 23784.91
OCI-LY-10; ibrutinib 2000 nM
  luminescence (CellTiter-Glo): 24452.84
OCI-LY-10; ibrutinib 10000 nM
  luminescence (CellTiter-Glo): 24826.24
SU-DHL-2; ibrutinib 0.0256 nM
  luminescence (CellTiter-Glo): 141202.0
SU-DHL-2; ibrutinib 0.128 nM
  luminescence (CellTiter-Glo): 146159.1
SU-DHL-2; ibrutinib 0.64 nM
  luminescence (CellTiter-Glo): 159399.0
SU-DHL-2; ibrutinib 3.2 nM
  luminescence (CellTiter-Glo): 161613.5
SU-DHL-2; ibrutinib 16 nM
  luminescence (CellTiter-Glo): 155353.5
SU-DHL-2; ibrutinib 80 nM
  luminescence (CellTiter-Glo): 164140.7
SU-DHL-2; ibrutinib 400 nM
  luminescence (CellTiter-Glo): 159908.6
SU-DHL-2; ibrutinib 2000 nM
  luminescence (CellTiter-Glo): 154426.1
SU-DHL-2; ibrutinib 10000 nM
  luminescence (CellTiter-Glo): 111485.8
OCI-LY-3; ibrutinib 0.0256 nM
  luminescence (CellTiter-Glo): 63957.70
OCI-LY-3; ibrutinib 0.128 nM
  luminescence (CellTiter-Glo): 59441.78
OCI-LY-3; ibrutinib 0.64 nM
  luminescence (CellTiter-Glo): 63322.70
OCI-LY-3; ibrutinib 3.2 nM
  luminescence (CellTiter-Glo): 66789.02
OCI-LY-3; ibrutinib 16 nM
  luminescence (CellTiter-Glo): 64655.70
